Read-outs that look alike come from different tables or passages of the source.
Tests used:
[1] = system: DMS273; experiment: JFCR-39 cytotoxicity screen; format: cell-based
[2] = system: MCF-7; experiment: JFCR-39 cytotoxicity screen; format: cell-based
[3] = system: HCC-2998; experiment: NCI-60 cytotoxicity screen; format: cell-based
[4] = system: MDA-MB-435; experiment: NCI-60 cytotoxicity screen; format: cell-based
[5] = system: OVCAR-3; experiment: cells; details: Homo sapiens, OVCAR-3, read-out: mean log10 of the GI50 values (converted)
[6] = system: normal cardiac myoblast H9c2 cells; details: rat
Experimental: Briefly, 96 well microtiter plates were inoculated with the specified human cancer cell lines in RPMI 1640 medium containing 5% fetal bovine serum and 2 mM L-glutamine at the specified plating densities. The microtiter plates were incubated at 37°C, 5% CO2, and 100% relative humidity for 24 h. The test compounds were solubilized in DMSO at 400-fold the desired final maximum test concentration, diluted with complete medium containing gentamicin and added to the wells of the microtiter plates to achieve the final desired compound concentration, then incubated for an additional 48 h at the same incubation conditions. The media were removed, the cells were fixed then stained with sulforhodamine B and the unbound dye was removed by washing with acetic acid. The bound dye was resolubilized with trizma base and the absorbance at 515 nm was measured. Cells were stained with the WST-1 cell proliferation reagent instead of sulforhodamine B in some experiments and absorbance were measured at 440 nm. The three dose response parameters GI50, TGI and LC50 were calculated for each experimental compound as follows [48]: For values where Ti ≥ Tz the formula is [ (Ti-Tz) / (C-Tz)] x 100 For values where Ti < Tz the formula is [ (Ti-Tz) / Tz] x 100 Where Ti is the absorbance of the solubilized Sulforhodamine B (SRB) (representing the number of cells) of the five different concentrations of the compound used in the test, Tz is the absorbance of the SRB at time zero, and C is the absorbance of the SRB of the control growth.

[7] = system: RPMI-8226; experiment: NCI-60 cytotoxicity screen; format: cell-based
[8] = system: OVCAR-5; experiment: NCI-60 cytotoxicity screen; format: cell-based
[9] = system: MKN28; experiment: JFCR-39 cytotoxicity screen; format: cell-based
[10] = system: HBC-5; experiment: JFCR-39 cytotoxicity screen; format: cell-based
[11] = system: EKVX; experiment: NCI-60 cytotoxicity screen; format: cell-based
[12] = system: SF-295; experiment: JFCR-39 cytotoxicity screen; format: cell-based
[13] = system: SF-268; experiment: NCI-60 cytotoxicity screen; format: cell-based
[14] = system: KM12; experiment: NCI-60 cytotoxicity screen; format: cell-based
[15] = system: A498; experiment: NCI-60 cytotoxicity screen; format: cell-based
[16] = system: HT-29; experiment: JFCR-39 cytotoxicity screen; format: cell-based
[17] = system: MKN1; experiment: JFCR-39 cytotoxicity screen; format: cell-based
[18] = system: CAKI-1; experiment: NCI-60 cytotoxicity screen; format: cell-based
[19] = system: PC-3; experiment: NCI-60 cytotoxicity screen; format: cell-based
[20] = system: MKN7; experiment: JFCR-39 cytotoxicity screen; format: cell-based
[21] = system: T-47D; experiment: NCI-60 cytotoxicity screen; format: cell-based
[22] = system: SF-268; experiment: JFCR-39 cytotoxicity screen; format: cell-based
[23] = system: NF-κB p65 subunit in OVCAR-3 cells; experiment: Western blotting of nuclear and cytosolic fractions; format: cell-based, human; details: OVCAR-3 nuclear fraction
Experimental: Treated cells were fractionated into nuclear and cytosolic fractions using the Nuclear/Cytosol fractionation kit (BioVision), separated by electrophoresis in SDS-PAGE gels and transferred to Amersham Hybond-P PVDF Membranes. Membranes were probed with either anti-NF-κB p65 rabbit monoclonal primary antibody [E379] Abcam # ab32536, anti-TATA binding protein (TBP) mouse antibody (1TBP18), or anti-beta Tubulin rabbit antibody [NB600-936]. After washing, membranes were incubated with either goat anti-rabbit IgG H&L (HRP) (ab6721), or rabbit anti-mouse IgG H&L (HRP) (ab6728) secondary antibodies. Membranes were developed using the Immobilon Western chemiluminescent HRP substrate kit. Protein bands were normalized to either the beta Tubulin or TBP bands and quantified using ImageJ software.

[24] = system: MDA-MB-231/ATCC; experiment: NCI-60 cytotoxicity screen; format: cell-based
[25] = system: A549/ATCC; experiment: NCI-60 cytotoxicity screen; format: cell-based
[26] = system: U251; experiment: JFCR-39 cytotoxicity screen; format: cell-based
[27] = system: PC-3; experiment: JFCR-39 cytotoxicity screen; format: cell-based
[28] = system: NCI-H226; experiment: NCI-60 cytotoxicity screen; format: cell-based
[29] = system: HOP-92; experiment: NCI-60 cytotoxicity screen; format: cell-based
[30] = Homo sapiens, Fig 7, read-out: mean log10 of the GI50 values (converted)
[31] = Homo sapiens, five-dose, read-out: GI50
[32] = Homo sapiens, five-dose, read-out: LC50 (the source's name)
[33] = Homo sapiens, read-out: LC50 (the source's name)

For `O=C1c2ccccc2C(=O)c2c1cc(Cl)c1nsnc21` [NSC757963], the TGI [1] was 4.1 µM, the GI50 ([1]; Homo sapiens, DMS-273) was 2.1 µM and the CC50 ([1]; Homo sapiens, DMS-273, read-out: LC50 (the source's name)) was 8.1 µM. For the same molecule, the TGI [2] was 3.9 µM, the GI50 ([2]; Homo sapiens, MCF7) was 1.8 µM and the CC50 ([2]; Homo sapiens, MCF7, read-out: LC50 (the source's name)) was 8 µM. For the same molecule, the GI50 [3, 30] was 17 µM, the LC50 (concentration causing 50% net cell kill) ([3]; Homo sapiens, five-dose) was 56.6 µM and the GI50 [3, 31] was 14.1 µM. It also gave a TGI ([3]; five-dose) of 28.2 µM, a GI50 [4, 30] of 1.95 µM and a GI50 [4, 31] of 1.99 µM. For the same molecule, the CC50 [4, 32] was 7.49 µM, the TGI ([4]; five-dose) was 3.86 µM and the GI50 [5] was 1.86 µM. The “cytotoxicity towards normal cardiac myoblast H9c2 cells” value [6] was “significantly less cytotoxic effects on H9c2 cells at higher doses than doxorubicin”, the GI50 [7, 30] was 2.88 µM and the GI50 [7, 31] was 3.15 µM. The CC50 [7, 32] was > 100 µM, the TGI ([7]; five-dose) was 53.2 µM and the GI50 [8, 30] was 17.4 µM. The GI50 [8, 31] was 17.6 µM, the CC50 [8, 32] was 56.8 µM and the TGI ([8]; five-dose) was 31.6 µM. It also gave a TGI [9] of 4.4 µM, a GI50 ([9]; Homo sapiens, MKN-28) of 2.2 µM and a CC50 ([9]; Homo sapiens, MKN-28, read-out: LC50 (the source's name)) of 8.6 µM. The TGI [10] was 4.1 µM, the GI50 ([10]; Homo sapiens, HBC5) was 2.1 µM and the CC50 ([10]; Homo sapiens, HBC5, read-out: LC50 (the source's name)) was 8.3 µM. For the same molecule, the GI50 [11, 30] was 10.5 µM, the GI50 [11, 31] was 11 µM and the CC50 [11, 32] was 48.7 µM. For the same molecule, the TGI ([11]; five-dose) was 23.2 µM, the TGI [12] was 3.5 µM and the GI50 ([12]; Homo sapiens) was 1.9 µM. The CC50 [12, 33] was 6.5 µM, the GI50 [13, 30] was 1.95 µM and the GI50 [13, 31] was 2.07 µM. It also gave a CC50 [13, 32] of 13.9 µM, a TGI ([13]; five-dose) of 4.83 µM and a GI50 [14, 30] of 10.7 µM. For the same molecule, the GI50 [14, 31] was 12.9 µM, the CC50 [14, 32] was 52.1 µM and the TGI ([14]; five-dose) was 25.9 µM. The GI50 [15, 30] was 85.1 µM, the GI50 [15, 31] was 72.8 µM and the CC50 [15, 32] was > 100 µM. The TGI ([15]; five-dose) was >100 µM, the TGI [16] was 45.0 µM and the GI50 ([16]; Homo sapiens) was 21 µM. For the same molecule, the CC50 [16, 33] was 98 µM, the TGI [17] was 3.4 µM and the GI50 ([17]; Homo sapiens, MKN-1) was 1.8 µM. The CC50 ([17]; Homo sapiens, MKN-1, read-out: LC50 (the source's name)) was 6.6 µM, the GI50 [18, 30] was 7.08 µM and the GI50 [18, 31] was 12.3 µM. The CC50 [18, 32] was 58.8 µM, the TGI ([18]; five-dose) was 26.8 µM and the GI50 [19, 30] was 2.57 µM. The GI50 [19, 31] was 2.85 µM, the CC50 [19, 32] was > 100 µM and the TGI ([19]; five-dose) was 30.2 µM. The TGI [20] was 3.6 µM, the GI50 ([20]; Homo sapiens, MKN-7) was 1.7 µM and the CC50 ([20]; Homo sapiens, MKN-7, read-out: LC50 (the source's name)) was 7.4 µM. The GI50 ([21]; Homo sapiens, T47D, Fig 7, read-out: mean log10 of the GI50 values (converted)) was 0.912 µM, the GI50 ([21]; Homo sapiens, T47D, five-dose, read-out: GI50) was 1.97 µM and the CC50 ([21]; Homo sapiens, T47D, five-dose, read-out: LC50 (the source's name)) was > 100 µM. It also gave a TGI ([21]; five-dose) of 4.56 µM, a TGI [22] of 4.0 µM and a GI50 ([22]; Homo sapiens) of 2 µM. The CC50 [22, 33] was 6.5 µM, the “dose of almost complete inhibition of nuclear NF-κB p65 expression” value [23] was 2.4 µM and the GI50 [24, 30] was 1.17 µM. For the same molecule, the GI50 [24, 31] was 1.32 µM, the CC50 [24, 32] was 8.63 µM and the TGI ([24]; five-dose) was 3.37 µM. For the same molecule, the GI50 [25, 30] was 91.2 µM, the GI50 [25, 31] was > 100 µM and the CC50 [25, 32] was > 100 µM. For the same molecule, the TGI ([25]; five-dose) was >100 µM, the TGI [26] was 3.9 µM and the GI50 ([26]; Homo sapiens, U-251) was 1.9 µM. For the same molecule, the CC50 ([26]; Homo sapiens, U-251, read-out: LC50 (the source's name)) was 8.1 µM, the TGI [27] was 3.2 µM and the GI50 ([27]; Homo sapiens) was 1.6 µM. The CC50 [27, 33] was 6.5 µM, the GI50 [28, 30] was 16.2 µM and the LC50 (concentration killing 50% of cells) ([28]; Homo sapiens, five-dose) was 53.9 µM. It also gave a GI50 [28, 31] of 14.9 µM, a TGI ([28]; five-dose) of 28.3 µM and a GI50 [29, 30] of 1.45 µM. For the same molecule, the GI50 [29, 31] was 1.43 µM, the CC50 [29, 32] was 7.84 µM and the TGI ([29]; five-dose) was 3.34 µM.

Reference: article PMC4839570, “Novel Anthra[1,2-c][1,2,5]Thiadiazole-6,11-Diones as Promising Anticancer Lead Compounds: Biological Evaluation, Characterization & Molecular Targets Determination” (PLoS ONE, 2016)
